Laboratory results as given in patent publication US10781183B2, “Small molecule inducers of reactive oxygen species and inhibitors of mitochondrial activity” (The Regents of the University of Michigan, priority 2016, dated 2020).
Like-named read-outs stand apart in the source and are kept apart here.

Assays:
[1] = tested on: MiaPaCa-2 cells; assay: MTT cytotoxicity assay, MiaPaCa-2; assay type: cell-based; conditions: Homo sapiens, MTT assay, Mean ± SD, three independent experiments
Procedure: (§1) MiaPaCa-2, Panc-1 and BxPC-3 pancreatic cancer cell lines were obtained from the ATCC. Normal pancreatic cells HPDE and HPNE were kindly provided (Translational Oncology Program, University of […], Ann Arbor, Mich.). Gemcitabine resistant cell line MiaPaCa-2-GR (gemcitabine resistant) was kindly provided (Department of Pathology, Wayne State University, Detroit, Mich.). All cell lines were cultured as monolayer and maintained in RPMI1640 supplemented with 10% fetal bovine serum (FBS) in a humidified atmosphere with 5% CO2 at 37° C. MiaPaCa-2-GR culture was supplemented with 200 nM gemcitabine.
(§2) Cytotoxicity of compounds was evaluated with 3-(4,5-dimethylthiazol-2-yl)-2,5-diphenyltetrazolium bromide (MTT) assay. Cells were placed in 96-well plate at 3000-8000 cells/well. After overnight attachment, compounds were added to the wells at sequential dilutions (30 nM-10 μM for most cell lines). After 72 h treatment, MTT was added into the media to a final concentration of 300 μg/mL. Cells were incubated for 3 h at 37° C., and the insoluble formazan converted by viable cells were dissolved in 150 μL of DMSO. Absorbance at 570 nm was read by microplate reader (Molecular devices, Sunnyvale, Calif.), and inhibition of cell proliferation was calculated using the following formula: Inhibition of cell proliferation (%)=(1−ODtreatment/ODcontrol)×100%

[2] = tested on: BxPC-3 cells; assay: MTT cytotoxicity assay, BxPC-3; assay type: cell-based; conditions: Homo sapiens, three independent experiments
Procedure: as §1, §2

[3] = tested on: Panc-1 cells; assay: MTT cytotoxicity assay, Panc-1; assay type: cell-based; conditions: Homo sapiens, three independent experiments
Procedure: as §1, §2

[4] = MIA PaCa-2, 72 h, Table 1, 72 h
[5] = MIA PaCa-2, Table 2, read-out: IC 50 MiaPaCa-2
[6] = BXPC-3, 72 h, Table 1, 72 h, Mean ± SD
[7] = BXPC-3, Table 2, Mean ± SD, read-out: IC 50 BxPC-3
[8] = PANC-1, 72 h, Table 1, 72 h, Mean ± SD
[9] = PANC-1, Table 2, Mean ± SD, read-out: IC 50 Panc-1

melting point [°C]	SMILES	IC50 [1, 4] [µM]	IC50 [1, 5] [µM]	IC50 [2, 6] [µM]	IC50 [2, 7] [µM]	IC50 [3, 8] [µM]	IC50 [3, 9] [µM]
> 320	O=C1C=CC(=O)c2ncncc21 [QD323, quinazoline-5,8-dione]						
169 to 171	O=C1C(Nc2ccc(Oc3ccccc3)cc2)=CC(=O)c2ncncc21 [QD324, 6-((4-phenoxyphenyl)amino)quinazoline-5,8-dione]	3.7 ± 0.7	3.7 ± 0.7	3.6 ± 0.4	3.6 ± 0.4	1.8 ± 0.2	1.8 ± 0.2
114	O=C1C(Nc2ccc(OC(F)(F)F)cc2)=CC(=O)c2ncncc21 [QD327, 6-((4-(trifluoromethoxy)phenyl)amino)quinazoline-5,8-dione]	1.4 ± 0.2	1.4 ± 0.2	0.9 ± 0.1	0.9 ± 0.1	0.9 ± 0.1	0.9 ± 0.1
> 320	NS(=O)(=O)c1ccc(NC2=CC(=O)c3ncncc3C2=O)cc1 [QD328, 4-((5,8-dioxo-5,8-dihydroquinazolin-6-yl)amino)benzenesulfonamide]	> 10	> 10	> 10	> 10	> 10	> 10
	O=C1C(Nc2ccc(CO)cc2)=CC(=O)c2ncncc21 [QD329, 6-((4-(hydroxymethyl)phenyl)amino)quinazoline-5,8-dione]	3.5 ± 1.3	3.5 ± 1.3	2.7 ± 0.3	5.7 ± 0.3	1 ± 0.2	1 ± 0.2
> 320	NC(=O)c1ccc(NC2=CC(=O)c3ncncc3C2=O)cc1 [QD330, 4-((5,8-dioxo-5,8-dihydroquinazolin-6-yl)amino)benzamide]	8 ± 0.9	8 ± 0.9	> 10	> 10	6.3 ± 0.3	6.3 ± 0.3
226 to 230	COC(=O)c1ccc(NC2=CC(=O)c3ncncc3C2=O)cc1 [QD331, Methyl 4-((5,8-dioxo-5,8-dihydroquinazolin-6-yl)amino)benzoate]	2.2 ± 0.4	2.2 ± 0.4	5.8 ± 0.3	5.8 ± 0.3	1.1 ± 0.4	1.1 ± 0.4
206 to 207	CCOC(=O)c1ccc(NC2=CC(=O)c3ncncc3C2=O)cc1 [QD332, Ethyl 4-((5,8-dioxo-5,8-dihydroquinazolin-6-yl)amino)benzoate]	5.5 ± 1.5	5.5 ± 1.5	5.9 ± 0.1	5.9 ± 0.1	1.6 ± 0.3	1.6 ± 0.3
208 to 210	O=C1C(Nc2cccc(B(O)O)c2)=CC(=O)c2ncncc21 [QD333, (3-((5,8-dioxo-5,8-dihydroquinazolin-6-yl)amino)phenyl)boronic acid]	> 10	> 10	> 10	> 10	9 ± 1	9 ± 1
285 to 289	O=C1C(Nc2ccc(-c3ccc(F)cc3)cc2)=CC(=O)c2ncncc21 [QD334, 6-((4′-fluoro-[1,1′-biphenyl]-4-yl)amino)quinazoline-5,8-dione]	3.5 ± 1	3.5 ± 1	4.4 ± 0.9	4.4 ± 0.9	3.2 ± 0.8	3.2 ± 0.8
270 to 272	COc1ccc(-c2ccc(NC3=CC(=O)c4ncncc4C3=O)cc2)cc1 [QD336, 6-((4′-methoxy[1,1′-biphenyl]-4-yl)amino)quinazoline-5,8-dione]	2.1 ± 0.5	2.1 ± 0.5	3.5 ± 0.5	3.5 ± 0.5	2.3 ± 0.3	2.3 ± 0.3
> 320	Nc1ccc(-c2ccc(NC3=CC(=O)c4ncncc4C3=O)cc2)cc1 [QD337, 6-((4′-amino-[1,1′-biphenyl]-4-yl)amino)quinazoline-5,8-dione]	2.5 ± 0.2	2.5 ± 0.2	3.5 ± 0.6	3.5 ± 0.6	3.7 ± 0.1	3.7 ± 0.1
282 to 283	Cc1ccc(-c2ccc(NC3=CC(=O)c4ncncc4C3=O)cc2F)cc1 [QD338, 6-((2-fluoro-4′-methyl-[1,1′-biphenyl]-4-yl)amino)quinazoline-5,8-dione]	4.6 ± 1.1	4.6 ± 1.1	5 ± 0.7	5 ± 0.7	4.8 ± 0.1	4.8 ± 0.1
203 to 205	Nc1ccc(C(=O)NCCC[P+](c2ccccc2)(c2ccccc2)c2ccccc2)cc1.[Br-] [QD339, (3-(4-aminobenzamido)propyl) triphenylphosphonium bromide]		> 30		> 30	> 30	> 30
	O=C(NCCC[P+](c1ccccc1)(c1ccccc1)c1ccccc1)c1ccc(NC2=CC(=O)c3ncncc3C2=O)cc1 [QD340, (3-(4-((5,8-dioxo-5,8-dihydroquinazolin-6-yl)amino)benzamido)propyl) triphenylphosphonium bromide]	15.3 ± 2.5	15.3 ± 2.5	21.5 ± 2.3	21.5 ± 2.3	11.7 ± 1.5	11.7 ± 1.5
142	COc1cccc(NC2=CC(=O)c3ncncc3C2=O)c1 [QD353, 6-((3-methoxyphenyl)amino)quinazoline-5,8-dione]	1.8 ± 0.3	1.8 ± 0.3	1.8 ± 0.1	1.8 ± 0.1	0.6 ± 0.1	0.6 ± 0.1
238	COc1ccc(NC2=CC(=O)c3ncncc3C2=O)cc1 [QD354, 6-((4-methoxyphenyl)amino)quinazoline-5,8-dione]	1.9 ± 0.2	1.9 ± 0.2	1.7 ± 0.2	1.7 ± 0.2	0.8 ± 0.2	0.8 ± 0.2
	COc1ccc(NC2=CC(=O)c3ncncc3C2=O)cc1OC [QD355, 6-((3,4-dimethoxyphenyl)amino)quinazoline-5,8-dione]	1.8 ± 0.1	1.8 ± 0.1	1.5 ± 0.2	1.5 ± 0.2	0.9 ± 0.3	0.9 ± 0.3
	COc1cc(NC2=CC(=O)c3ncncc3C2=O)cc(OC)c1 [QD357, 6-((3,5-dimethoxyphenyl)amino)quinazoline-5,8-dione]	7.7 ± 2	7.7 ± 2	16.3 ± 1.5	16.3 ± 1.5	7.2 ± 0.8	7.2 ± 0.8
	O=C(NCCC[P+](c1ccccc1)(c1ccccc1)c1ccccc1)c1cccc(NC2=CC(=O)c3ncncc3C2=O)c1 [QD359, (3-(3-((5,8-dioxo-5,8-dihydroquinazolin-6-yl)amino)benzamido)propyl) triphenylphosphonium bromide]	16.3 ± 3.6	16.3 ± 3.5	21.3 ± 2.5	21.3 ± 2.5	14.3 ± 1.5	14.3 ± 1.5
199 to 200	O=C1C(Nc2cccc(-c3ccccc3)c2)=CC(=O)c2ncncc21 [QD385, 6-(Biphenyl-3-ylamino)quinazoline-5,8-dione]						
292 to 293	O=C1C(Nc2ccc(-c3ccc(Cl)cc3)cc2)=CC(=O)c2ncncc21 [QD386, 6-(4′-Chlorobiphenyl-4-ylamino)quinazoline-5,8-dione]						
260 to 261	O=C1C(Nc2ccc(-c3cc(Cl)cc(Cl)c3)cc2)=CC(=O)c2ncncc21 [QD387, 6-(3′,5′-Dichlorobiphenyl-4-ylamino)quinazoline-5,8-dione]						
209	O=C1C(Nc2ccc(N3CCCCC3)cc2)=CC(=O)c2ncncc21 [QD388, 6-(4-(Piperidin-1-yl)phenylamino)quinazoline-5,8-dione]						
226 to 227	O=C1C(Nc2ccc(N3CCOCC3)cc2)=CC(=O)c2ncncc21 [QD389, 6-(4-Morpholinophenylamino)quinazoline-5,8-dione]						
217	O=C1C(Nc2cccc3c2-c2ccccc2C3)=CC(=O)c2ncncc21 [QD390, 6-(9H-Fluoren-4-ylamino)quinazoline-5,8-dione]						
236 to 237	O=C1C(Nc2ccc3c(c2)Cc2ccccc2-3)=CC(=O)c2ncncc21 [QD391, 6-(9H-Fluoren-2-ylamino)quinazoline-5,8-dione]						
247	CCc1ccc(-c2ccc(NC3=CC(=O)c4ncncc4C3=O)cc2)cc1 [QD392, 6-(4′-Ethylbiphenyl-4-ylamino)quinazoline-5,8-dione]						
234	O=C1C(Nc2ccc(C3CCCCC3)cc2)=CC(=O)c2ncncc21 [QD393, 6-(4-Cyclohexylphenylamino)quinazoline-5,8-dione]						
239	O=C1C(Nc2ccc(-c3ccccn3)cc2)=CC(=O)c2ncncc21 [QD395, 6-(4-(Pyridin-2-yl)phenylamino)quinazoline-5,8-dione]						
